# From article PMC8158687, “Xanthones Active against Multidrug Resistance and Virulence Mechanisms of Bacteria” (Antibiotics, 2021)
# Experiments:
# [1] = test system: S. aureus 272123; test: Efflux pump inhibition assay (real-time ethidium bromide accumulation); assay type: cell-based, Staphylococcus aureus; settings: compound 50 µM, EB 1 µg/mL, minute 60
# Procedure: Compounds 1–20 were assessed for their capability of modulating ethidium bromide (EB) accumulation on two resistant strains. […] However, norA is a core gene of the S. aureus as a species, which means that the NorA pump occurs in all S. aureus strains.
# (§1) Salmonella enterica serovar Typhimurium SE03, was used as a Gram-negative bacterium. This strain has a deletion of the acrA gene, which was predicted with the least affinity for the compounds. The aim of these studies was to perform a first screening of these compounds and their ability to modulate the efflux of EB. […] The relative fluorescence index (RFI) was calculated based on the means of relative fluorescence units, depicted in Table 2.
# (§2) Compounds 1–20 were evaluated for their ability to inhibit efflux pumps in SE03 and S. aureus 272123 strains, through the real-time fluorimetry, monitoring the intracellular accumulation of EB, an efflux pump substrate. This was determined by the automated method using a CLARIOstar Plus plate reader (BMG Labtech, Ortenberg, Germany). Reserpine and CCCP were applied at 25 µM as positive controls, and the solvent DMSO was applied at 1% v/v. The bacterial strains were incubated in an appropriate culture media (TSB—S. aureus 272123; LB-B—SE03) at 37 °C until they reached an optical density (OD) between 0.4 and 0.6 at λ = 600 nm. The culture was centrifuged at 13,000× g for 3 min, and the pellet washed and resuspended with PBS. The suspension was centrifuged again in the same conditions and resuspended in PBS. The compounds were applied at 50 µM in a solution of a non-toxic concentration of EB (1 µg/mL) in PBS. Then, 50 µL of this solution were transferred into a 96-well black microtiter plate (Greiner Bio-One Hungary Kft, Mosonmagyaróvár, Fertősor, Hungary), and 50 µL of bacterial suspension (OD600 0.4–0.6) were added to each well. The plates were placed into the CLARIOstar plate reader, and the fluorescence was monitored at excitation and emission wavelengths of 530 nm and 600 nm every minute for one hour on a real-time basis. From the real-time data, the activity of the compounds, namely the RFI of the last time point (minute 60) of the EB accumulation assay, was calculated according to the following formula:(1) RFI=RFtreated−RFuntreated/RFuntreated where RFtreated is the relative fluorescence (RF) at the last time point of EB accumulation curve in the presence of the compound, and RFuntreated is the RF at the last time point of the EB accumulation curve of the untreated control, having only the solvent (DMSO) control. The accumulation curves were designed using Microsoft Excel®.
# [2] = test system: SE03 (acrA gene-inactivated Salmonella enterica serovar Typhimurium SL1344); test: as above; assay type: cell-based; settings: compound 50 µM, EB 1 µg/mL, minute 60
# Procedure: as §1, §2
# [3] = test system: S. aureus ATCC 29213; test: Inhibition of biofilm formation (crystal violet); assay type: cell-based, Staphylococcus aureus; settings: half the MIC, or 100 µM if MIC >100 µM, 48 h, 30 °C
# [4] = test system: Chromobacterium violaceum wild type 85 (wt85); test: Quorum sensing inhibition assay (disk, pigment production); assay type: cell-based; settings: read-out: Quorum Sensing Inhibition (mm) ± SD
# Description: (§3) The sensor strain Chromobacterium violaceum CV026 and the acyl-homoserine lactones (AHLs) producer strain Sphingomonas paucimobilis Ezf 10-17 (EZF) were inoculated as parallel lines, and the AHL producers, Chromobacterium violaceum wild type 85 (wt85) and Serratia marcescens AS-1 were inoculated as a single line.
# (§4) For the QS tests, all the bacteria used were Gram-negative. The bacteria used were Chromobacterium violaceum wild type 85 (wt85), characterized by the AHL signal molecule-mediated production of the purple violacein pigment, capable of endogenous QS-signal molecule production (N-hexanoyl-L-HSL), C. violaceum CV026 (CV026), a Tn5 transposase-mutant, AHL-signal molecule indicator strain (produces purple violacein pigment in the presence of AHL), which is incapable of endogenous QS-signal molecule-production, but useful in the detection of external stimuli, Sphingomonas paucimobilis Ezf 10-17 (EZF), AHL-producing-strain (used with C. violaceum CV026), and Serratia marcescens AS-1, characterized by the AHL signal molecule-mediated production of the orange–red pigment prodigiosin (2-methyl-3-pentyl-6-methoxyprodigiosin), capable of endogenous QS-signal molecule production (N-hexanoyl-L-HSL), were applied.
# (§5) The QS inhibitory effect of the compounds was examined on the EZF and the sensor CV026 strains, on the wt85 strain, and on S. marcescens, for 4, 5, 11, 12, 16, 19, and 20. The method used was the parallel inoculation method, where pair combinations of the used sensor strain CV026 and the N-acyl-homoserine lactone (AHL)-producing strain EZF were inoculated directly onto the LB*-A agar surface in parallel, at an approximate distance of 5 mm from each other. S. marcescens AS-1 and wt85 were inoculated as a single line. Filter paper disks (7 mm in diameter) were placed on the center of the inoculated line(s) and impregnated with 8 µL of a solution of 10 mM of the compounds. […] The agar plates were incubated at room temperature (20 °C) for 24–48 h. The QS inhibition was accessed visually, through the inhibition of pigment production. The discolored, but intact, bacterial colonies were measured with a ruler.
# [5] = test system: Serratia marcescens AS-1; test: as above; assay type: cell-based; settings: AS1, read-out: Quorum Sensing Inhibition (mm) ± SD
# Description: as §3, §4, §5
# [6] = test system: EZF + CV026 (Sphingomonas paucimobilis Ezf 10-17 + Chromobacterium violaceum CV026); test: Quorum sensing inhibition assay (parallel inoculation, pigment production); assay type: cell-based; settings: read-out: Quorum Sensing Inhibition (mm) ± SD
# Description: as §3, §4, §5
# [7] = Cytotoxicity assay (MTT); assay type: cell-based, mouse; settings: mouse, NIH/3T3 mouse fibroblast cells, 24 h, MTT, read-out: Cytotoxicity IC50 (µM) ± SD
# Procedure: (§6) In order to apply efflux pump inhibitors to treat patients, several issues should be addressed.
# (§7) Mouse fibroblasts (NIH/3T3, ATCC CRL-1658TM) were cultivated in DMEM (Gibco 52100-039) and supplemented with 10% heat-inactivated fetal bovine serum (Biowest, VWR International Kft, Debrecen, Hungary), 2 mM of L-glutamine, 1 mM Na pyruvate, 100 U/L and 10 mg/L penicillin/streptomycin mixture (Sigma-Aldrich Chemie GmbH, Steinheim, Germany), respectively, and 0.1% nystatin (8.3 g/L in ethylene glycol). The adherent cells were detached using a combination of 0.25% Trypsin–Versene (EDTA) solution for 5 min at 37 °C. Before each cytotoxicity assay using this cell line, cells were seeded in untreated 96-well flat-bottom microtiter plates, following a 4-h incubation period in a humidified atmosphere (5% CO2, 95% air) at 37 °C [60].
# (§8) The cytotoxicity of 4, 12, 16, 19, and 20 was assessed in NIH/3T3 cells. The compounds were added to the cells distributed into 96-well flat bottom microtiter plates at concentrations of […] and initially incubated for 24 h, after which a solution of MTT in PBS was added to each well and incubated for another 4 h. The concentrations used were the same as in the MIC assay. After this, 100 μL of SDS (10% in a 0.01 M HCl solution) were added to each well and incubated overnight at 37 °C. Doxorubicin was used as the positive control. Cell growth was determined in quadruplicate by measuring OD at λ = 540 nm (reference 630 nm) in a Multiscan EX ELISA reader (Thermo Labsystems, Cheshire, WA, USA). The percentage of inhibition of cell growth was determined according to the equation: (2) 100−(ODsample−ODmedium control/ODcell control−ODmedium control)×100
# [8] = test system: NIH/3T3 mouse fibroblast cells; test: Cytotoxicity assay (MTT); assay type: cell-based
# Procedure: as §6, §7, §8
# [9] = test system: extended-spectrum β-lactamase producing strain; set-up: method as in PMID 32455828; settings: previous results; ref [14]; cited from earlier work
# [10] = test system: S. aureus 272123; test: Inhibition of biofilm formation (crystal violet); assay type: cell-based, Staphylococcus aureus; settings: half the MIC, or 100 µM if MIC >100 µM, 48 h, 30 °C
# Procedure: The biofilm inhibition, presented in percentages (%), was calculated based on the mean of absorbance units.
# The bacterial strains used were the Gram-positive S. aureus ATCC 25923 and S. aureus 272123. The detection of the biofilm formation was possible with the use of the dye crystal violet (CV; 0.1% v/v). The initial inoculum was incubated in TSB overnight, and then diluted to an OD600 of 0.1. Then, the bacterial suspension was added to 96-well microtiter plates and the compounds were added at half the MIC. […] The final volume in each well was 200 µL. […] The plates were incubated at 30 °C for 48 h, with gentle stirring (100 rpm). After this incubation period, the TSB medium was discarded, and the plates were washed with tap water to remove unattached cells. Afterwards, 200 µL of a 0.1% v/v CV solution were added to the wells and incubated for 15 min at room temperature. Then, the CV solution was removed from the wells, and the plates were washed again with tap water, and 200 µL of a 70% ethanolic solution were added to the wells. The biofilm formation was determined by measuring the OD600 using a Multiscan EX ELISA plate reader (Thermo Labsystems, Cheshire, WA, USA). The anti-biofilm effect of the compounds was expressed as the percentage (%) of decrease in biofilm formation.
compound,measurement,setting,value
O=c1c2cc(O)ccc2oc2cccc(O)c12 [Compound 4],RFI ± SD (relative fluorescence index),[1],0.13 ± 0.08 ^2
same,RFI ± SD (relative fluorescence index),[2],2.90 ± 0.71 ^7
same,Inhibition of Biofilm Formation (%) ± SD,[3],0 ^1%
same,zone of inhibition at 10000 µM,[4],0 mm
same,zone of inhibition at 10000 µM,[5],0 mm
same,zone of inhibition at 10000 µM,[6],0 mm
same,IC50 at 24 h,[7],> 100 µM
same,Cytotoxicity (in words),[8],no cytotoxicity was observed
same,activity against extended-spectrum β-lactamase producing strain (in words),[9],not active
COc1cc(CBr)c2c(=O)c3ccccc3oc2c1OC [Compound 12],RFI ± SD (relative fluorescence index),[1],0.11 ± 0.30 ^4
same,RFI ± SD (relative fluorescence index),[2],1.75 ± 1.57 ^9
same,Inhibition of Biofilm Formation (%) ± SD,[3],0 ^1%
same,Inhibition of Biofilm Formation (%) ± SD,[10],6.27 ± 1.41 ^3%
same,zone of inhibition at 10000 µM,[4],0 mm
same,zone of inhibition at 10000 µM,[5],0 mm
same,zone of inhibition at 10000 µM,[6],30 ± 0.5 mm
same,IC50 at 24 h,[7],54.6 ± 5.3 µM
same,Cytotoxicity (in words),[8],moderate cytotoxicity
COc1ccc2c(=O)c3c(C=O)cc(OC)c(OC)c3oc2c1 [Compound 16],RFI ± SD (relative fluorescence index),[1],5.49 ± 8.04 ^5
same,RFI ± SD (relative fluorescence index),[2],0.13 ± 0.15 ^10
same,Inhibition of Biofilm Formation (%) ± SD,[3],0 ^2%
same,Inhibition of Biofilm Formation (%) ± SD,[10],58.98 ± 12.00 ^4%
same,zone of inhibition at 10000 µM,[4],0 mm
same,zone of inhibition at 10000 µM,[5],0 mm
same,zone of inhibition at 10000 µM,[6],42 ± 0.8 mm
same,IC50 at 24 h,[7],26.9 ± 5.87 µM
same,Cytotoxicity (in words),[8],moderate cytotoxicity
